Like-named read-outs stand apart in the source and are kept apart here.
Tests used:
[1] = target: T1, HIV-1 RT (Human immunodeficiency virus type 1 group M subtype B, UniProt P04585); details: read-out: inhibition constant; cited from earlier work
T1 construct: The primary target of tenofovir diphosphate is reverse transcriptase (RT)

[2] = tested on: HIV-1 wild type; experiment: MT-4 cell-based antiviral assay (viral cytopathicity, tetrazolium); details: Human immunodeficiency virus 1, MT4
Procedure: (§1) Compound E-TMC278 was tested in a cell-based assay, using natural host cells of HIV. MT-4 cells (a cell line of human T cells) were infected with HIV-1 (wild type or mutants) and exposed to different concentrations of antiviral compound in the presence of 10% fetal calf serum. Cytotoxicity was determined in parallel with the antiviral activity so that the selectivity of the antiviral effect could be assessed. Active compounds have to penetrate the cell membrane in order to interfere with replication steps inside the cell.
(§2) After four days of incubation at 37° C., the viability of the HIV and mock-infected cells was assessed by an automated tetrazolium-based calorimetric assay. This method enabled the calculation of both the 50% inhibitory concentration for inhibition of viral cytopathicity (IC50), the IC90, and the 50% cytotoxic concentration (CC50). The ratio CC50/IC50, also called the selectivity index, is an indication of the specificity of the antiviral effect. Tested HIV strains included: Wild type (wt) HIV-1; a panel of single and double mutants, obtained by site-directed mutagenesis (SDM), and a panel of clinical isolates, selected for resistance against NNRTIs.

[3] = tested on: HIV-1 mutant 227C; experiment: MT-4 cell-based antiviral assay, SDM mutant
Procedure: as §1, §2
(§3) A limited panel of HIV-1 mutants was constructed using site-directed mutagenesis (SDM) and homologous recombination techniques. […] Nevirapine (NVP) and efavirenz (EFV) were included as controls.

[4] = tested on: HIV-1 mutant 181C; experiment: MT-4 cell-based antiviral assay, SDM mutant
Procedure: as §1, §2, §3

[5] = tested on: HIV-1 mutant 188L; experiment: MT-4 cell-based antiviral assay, SDM mutant
Procedure: as §1, §2, §3

[6] = tested on: HIV-1 mutant 103N; experiment: MT-4 cell-based antiviral assay, SDM mutant
Procedure: as §1, §2, §3

[7] = tested on: HIV-1 double mutant 103N + 181C; experiment: MT-4 cell-based antiviral assay, SDM mutant; details: Human immunodeficiency virus 1, MT4, read-out: IC50 value
Procedure: as §1, §2, §3

[8] = tested on: HIV-1 mutant 100I; experiment: MT-4 cell-based antiviral assay, SDM mutant
Procedure: as §1, §2, §3

[9] = tested on: HIV-1 double mutant 100I + 103N; experiment: MT-4 cell-based antiviral assay, SDM mutant
Procedure: as §1, §2, §3

[10] = tested on: HIV-1 double mutant 227L + 106A; experiment: MT-4 cell-based antiviral assay, SDM mutant
Procedure: as §1, §2, §3

[11] = tested on: monotropic HIV strain Ba-L; experiment: MO-DC/CD4(+) T cell co-culture model of sexual HIV transmission; type: cell-based; details: in words
Description: Immature monocyte derived dendritic cells (immMO-DC) represent a good model for interstitial dendritic cells, which are early targets during sexual HIV transmission and important initiators of the immune response. These immMO-DC were used in “in vitro” models to test the prevention of HIV infection via sexual intercourse or related intimate contact between partners.
For instance, in one model, monocyte-derived dendritic cells (MO-DC) were infected for 2-hours with the monotropic HIV strain Ba-L at a multiplicity of infection (MOI) of 10^−3. After infection, cells were washed 6 times and resuspended in 10% BCS at 400.000 cells/ml. Autologous CD4(+) T cells were purified out of the lymphocyte fraction of the same elutration as the MO-DC and used at a concentration of 2×10^6 cells/ml ((ratio MO-DC/CD4(+) T: 1/5).
A serial dilution of a compound of formula (I) (test compound) was added to the MO-DC/CD4(+) T cell co-cultures. Each experiment was done in 96-well plates, in which each cup contained 50 μl of MO-DC, 50 μl of CD4(+) T cells and 100 μl of test compound. Half of the culture medium, with test compound, was refreshed twice weekly. Supernatants were analysed in ELISA after 14 days of culture. To determine antiviral activity, the test compound concentration able to suppress 50% of the viral replication at the end of the primary cultures (EC50) was measured.

[12] = tested on: HIV-1; details: cited from earlier work
[13] = tested on: simian immunodeficiency virus; details: SIV after 5 to 15 weeks treatment, 30 mg/kg, newborn rhesus macaques; cited from earlier work
[14] = tested on: clinical HIV strains expressing the M184V mutation; details: cited from earlier work
[15] = tested on: recombinant virus expressing the K65R mutation; details: in vitro; cited from earlier work
[16] = tested on: HIV-1 mutant 190S; experiment: MT-4 cell-based antiviral assay, SDM mutant; details: Human immunodeficiency virus 1, MT4
Procedure: as §1, §2, §3

[17] = tested on: HIV-1 mutant 101E; experiment: MT-4 cell-based antiviral assay, SDM mutant; details: Human immunodeficiency virus 1, MT4
Procedure: as §1, §2, §3

[18] = tested on: HIV-1 mutant 236L; experiment: MT-4 cell-based antiviral assay, SDM mutant; details: Human immunodeficiency virus 1, MT4
Procedure: as §1, §2, §3

[19] = tested on: HIV-1 mutant 108I; experiment: MT-4 cell-based antiviral assay, SDM mutant; details: Human immunodeficiency virus 1, MT4
Procedure: as §1, §2, §3

[20] = tested on: HIV-1 double mutant 101E + 103N; experiment: MT-4 cell-based antiviral assay, SDM mutant; details: Human immunodeficiency virus 1, MT4, 96 h
Procedure: as §1, §2, §3

[21] = tested on: HIV-1 mutant 179E; experiment: MT-4 cell-based antiviral assay, SDM mutant; details: Human immunodeficiency virus 1, MT4
Procedure: as §1, §2, §3

[22] = tested on: HIV-1 mutant 138K; experiment: MT-4 cell-based antiviral assay, SDM mutant; details: Human immunodeficiency virus 1, MT4
Procedure: as §1, §2, §3

[23] = tested on: HIV-1 mutant 188H; experiment: MT-4 cell-based antiviral assay, SDM mutant; details: Human immunodeficiency virus 1, MT4
Procedure: as §1, §2, §3

[24] = tested on: HIV-1 mutant 227L; experiment: MT-4 cell-based antiviral assay, SDM mutant; details: Human immunodeficiency virus 1, MT4
Procedure: as §1, §2, §3

[25] = tested on: HIV-1 mutant 225H; experiment: MT-4 cell-based antiviral assay, SDM mutant; details: Human immunodeficiency virus 1, MT4
Procedure: as §1, §2, §3

[26] = tested on: HIV-1 mutant 190A; experiment: MT-4 cell-based antiviral assay, SDM mutant; details: Human immunodeficiency virus 1, MT4
Procedure: as §1, §2, §3

[27] = tested on: HIV-1 mutant 106A; experiment: MT-4 cell-based antiviral assay, SDM mutant; details: Human immunodeficiency virus 1, MT4
Procedure: as §1, §2, §3

[28] = tested on: HIV-1 double mutant 103N + 181I; experiment: MT-4 cell-based antiviral assay, SDM mutant; details: Human immunodeficiency virus 1, MT4, 96 h
Procedure: as §1, §2, §3

[29] = tested on: HIV-1 mutant 179D; experiment: MT-4 cell-based antiviral assay, SDM mutant; details: Human immunodeficiency virus 1, MT4
Procedure: as §1, §2, §3

[30] = tested on: HIV-1 mutant 188C; experiment: MT-4 cell-based antiviral assay, SDM mutant; details: Human immunodeficiency virus 1, MT4
Procedure: as §1, §2, §3

[31] = tested on: HIV; details: short course of monotherapy; cited from earlier work
[32] = tested on: laboratory strain of HIV with combination of 65R, 74V, 115F and/or 184V; details: combination of resistance mutations; cited from earlier work
[33] = tested on: HIV-1 M184V; details: cited from earlier work
[34] = tested on: wild-type or zidovudine-resistant HIV-1 strains; details: MT-4 cells; cited from earlier work
[35] = tested on: HIV-1; details: human PBMCs and MT-2 cells, increasing drug concentrations; cited from earlier work
[36] = tested on: HIV-1 mutant 234I; experiment: MT-4 cell-based antiviral assay, SDM mutant; details: Human immunodeficiency virus 1, MT4
Procedure: as §1, §2, §3

[37] = tested on: wild type HIV-1; experiment: Development of resistance in vitro, MT4 cells, high multiplicity of infection; type: cell-based; details: wild type HIV-1, >1 infectious virus per cell, all tested concentrations, total 30 days
Description: Emerging virus was collected for pheno- and genotyping. Cultures without evidence of virus replication were further sub-cultivated in the presence of the same concentration of inhibitor for a total duration of 30 days (10 passages).

[38] = Human immunodeficiency virus 1, MT4, read-out: IC50 value
[39] = wild type, MT-4 cells, 10% fetal calf serum, read-out: IC50
[40] = Human immunodeficiency virus 1, MT4
[41] = Human immunodeficiency virus 1, MT4, 96 h, 100I + 103N, MT-4 cells
[42] = Human immunodeficiency virus 1, MT4, 96 h

CC(Cn1cnc2c(N)ncnc21)OCP(=O)(O)OP(=O)(O)OP(=O)(O)O (stereo in doubt) [Tenofovir diphosphate]
Ki [1]: ~900 nM

Cc1cc(/C=C\C#N)cc(C)c1Nc1ccnc(Nc2ccc(C#N)cc2)n1 [Z-TMC278, (Z)-4-[[4-[[4-(2-cyanoethenyl)-2,6-dimethylphenyl]-amino]-2-pyrimidinyl]-amino]-benzonitrile]
IC50 ([2]; Table 1, HIV RT mutation: Wild-type, read-out: IC50 value): 0.6 nM
IC50 [3, 38]: 4 nM
IC50 [4, 38]: 5 nM
IC50 [5, 38]: 32 nM
IC50 [6, 38]: 1.6 nM
IC50 [7]: 40 nM
IC50 [8, 38]: 6.3 nM
IC50 ([9]; Human immunodeficiency virus 1, MT4, read-out: IC50 value, Table 1, HIV RT mutation: 100I + 103N): 790 nM
IC50 [10, 38]: 4 nM

Cc1cc(C=CC#N)cc(C)c1Nc1ccnc(Nc2ccc(C#N)cc2)n1 [TMC278, 4-[[4-[[4-(2-cyanoethenyl)-2,6-dimethylphenyl]-amino]-2-pyrimidinyl]-amino]-benzonitrile]
inhibition of HIV replication in MO-DC/CD4(+) T cell co-cultures [11]: potently inhibits HIV replication

Nc1nc(=O)n([C@@H]2CS[C@H](CO)O2)cc1F (racemic) [(−)-beta-enantiomer of FTC, Emtricitabine]
in vitro anti-HIV-1 activity relative to the (+)-beta-enantiomer [12]: 20 fold

C[C@H](Cn1cnc2c(N)ncnc21)OCP(=O)(O)O [tenofovir]
decreased susceptibility [13]: approximately 5 fold
susceptibility in vitro [14]: wild-type or increased susceptibility
decreased susceptibility [15]: 3 fold

O=C1Nc2ccc(Cl)cc2[C@@](C#CC2CC2)(C(F)(F)F)O1 [EFV, efavirenz]
IC50 [2, 39]: 1.4 nM
IC50 [3, 40]: 36 nM
IC50 [4, 40]: 2 nM
IC50 [16]: 275 nM
IC50 [5, 40]: 78 nM
IC50 [17]: 5 nM
IC50 [18]: 1 nM
IC50 [6, 40]: 28 nM
IC50 [19]: 2 nM
IC50 [20]: 84 nM
IC50 [21]: 5 nM
IC50 [8, 40]: 35 nM
IC50 [22]: 1.3 nM
IC50 [23]: 9 nM
IC50 [24]: 0.3 nM
IC50 [25]: 2 nM
IC50 [26]: 8 nM
IC50 [27]: 23 nM
IC50 [9, 41]: 10000 nM
IC50 [10, 42]: 8 nM
IC50 [28]: 37 nM
IC50 [29]: 6 nM
IC50 [30]: 5 nM

Nc1nc(NC2CC2)c2ncn([C@H]3C=C[C@@H](CO)C3)c2n1 [abacavir]
average reduction in viral load [31]: more than 1.4 log 10 RNA copies/ml
reduction in susceptibility [32]: 10 fold
decrease in HIV-1 susceptibility [33]: 3 fold
passages until significant decrease in susceptibility [34]: eight to ten

Nc1nc(=O)n([C@@H]2CS[C@H](CO)O2)cc1F (racemic) [FTC, (±)-cis-4-amino-5-fluoro-1-[2-(hydroxymethyl)-1,3-oxathiolan-5-yl]-2(1H)-pyrimidinone]
cycles of infection until highly drug-resistant variants dominated [35]: two or more

Cc1ccnc2c1NC(=O)c1cccnc1N2C1CC1 [NVP, 11-cyclopropyl-5,11-dihydro-4-methyl-6H-dipyrido-[3,2-b: 2′,3′-e][1,4]diazepin-6-one]
IC50 [2, 39]: 81 nM
IC50 [3, 40]: 1820 nM
IC50 [4, 40]: ≥ 10000 nM
IC50 [16]: 10000 nM
IC50 [5, 40]: 10000 nM
IC50 [17]: 547 nM
IC50 [18]: 41 nM
IC50 [6, 40]: 2880 nM
IC50 [36]: 45 nM
IC50 [20]: 7030 nM
IC50 [21]: 158 nM
IC50 [8, 40]: 597 nM
IC50 [22]: 64 nM
IC50 [23]: 241 nM
IC50 [24]: 78 nM
IC50 [25]: 171 nM
IC50 [26]: 4100 nM
IC50 [27]: 2980 nM
IC50 [9, 41]: 10000 nM
IC50 [10, 42]: 10000 nM
IC50 [28]: 10000 nM
IC50 [29]: 161 nM
IC50 [30]: 3760 nM
time to emergence of resistant virus [37]: 3 to 6 days
